Legend:
[1] = test system: Penicillium funiculosum CECT 2914; conditions: Fungi; cited from earlier work
[2] = test system: Staphylococcus aureus ATCC 6538; conditions: Gram + bacteria; cited from earlier work
[3] = animals and humans; cited from earlier work
[4] = test system: Pseudomonas aeruginosa ATCC 9027; conditions: Gram − bacteria; cited from earlier work
[5] = test system: Citrobacter freundii ATCC 22636; conditions: Gram − bacteria; cited from earlier work
[6] = test system: endotoxins produced by E. coli O113:H10; test: Endotoxin deactivation by LAE, LAL assay (turbidimetric, pyrochrome); assay type: biochemical; conditions: E. coli O113:H10 endotoxin 12.5 μg/ml, incubated two hours at 37° C., control without LAE 120
Procedure: Turbidimetric LAL test was conducted according to the instructions provided by the manufacturer (Pyrotell-T, The associates of Cape Cod, Inc.). The standard curve was built based on 300, 30, 3, 0.3, 0.03 and 0.003 EU/ml. The same endotoxin in concentrations of 12.5 μg/ml was used in the experiment.
LAE was applied in concentrations of 0, 5, 10, 20, 30, 50 μg/ml to assess this compound's ability to deactivate endotoxins. LAL reagent water (LRW) was used to make all the endotoxin dilutions including the standards. MIRENAT-CF is a 10.5% solution of LAE in Propylene glycol, so the dilutions of MIRENAT-CF were initially made in propylene glycol, so that concentration of LAE was kept as the only variable. For the presumptive deactivation procedure, the endotoxin was incubated together with LAE for two hours at 37° C. The turbidimetric assay was conducted two times using the onset time for OD405=0.05. The pyrochrome assay was conducted once using the same template on plates.

S. typhimurium LPS = test: Endotoxin deactivation as a function of LAE concentration, LAL assay; assay type: biochemical, Salmonella typhimurium; conditions: for CONCENTRATION Endotoxin: S. typhimurium LPS 10 μg/ml, 2 hours at 37° C., control without LAE 17000
Procedure: The 1 mg/ml stock solution of S. typhimurium LPS was prepared using the commercially available LPS obtained from the List Biological Laboratories, Inc. (cat #225). The 20 μg/ml solution of LPS was prepared by serially diluting the stock. All the LPS solutions were kept at refrigeration temperatures according to the instructions provided by the manufacturer.
The solutions of LAE prepared were used in the experiment. For the procedure, 500 μl of 20 μg/ml of endotoxins were mixed with 500 μl of LAE solution (10, 20, 40, 60 and 100 μg/ml) in glass reaction tubes, giving the final concentration of LPS, 10 μg/ml and the concentration range of LAE, 5-50 μg/ml. As a negative control, LPS was mixed with 1 mg/ml aqueous solution of propylene glycol. The mixture was incubated for 2 hours at 37° C. Each sample was serially diluted using the LAL reagent water to be assayed for the endotoxin activity.

[7] = rats; cited from earlier work
[8] = test system: Aspergillus niger ATCC 14604; conditions: Fungi; cited from earlier work
[9] = test system: Clostridium perfringens ATCC 77454; conditions: Gram + bacteria; cited from earlier work
[10] = test system: Gliocadium virens ATCC 4645; conditions: Fungi; cited from earlier work
[11] = test system: Enterobacter aerogenes CECT 689; conditions: Gram − bacteria; cited from earlier work
[12] = test system: Bacillus cereus var mycoide ATCC 11778; conditions: Gram + bacteria; cited from earlier work
[13] = test system: Rhodotorula rubra CECT 1158; conditions: Yeast; cited from earlier work
[14] = test system: Aureobasidium pullulans ATCC 9348; conditions: Fungi; cited from earlier work
[15] = test system: Salmonella typhimurium ATCC 16028; conditions: Gram − bacteria; cited from earlier work
[16] = test system: Human epithelial cell lines (KB); test: LPS-induced release of peptidases from human cell culture, fluorigenic substrate; assay type: cell-based; conditions: for Peptidase released: LAE 2 μg/ml; for Peptidase released / reduction of the toxicity of LPS (measured by fluorescence release): KB cells
Procedure: Human epithelial cell lines (KB) were obtained from American Cell type collection and grown in BGJ medium (Gibco, Buffalo, N.Y.) at 37° C. with 5% CO2. The medium was supplemented with 5% heated calf serum. Cells were placed in 24 well dishes with 0.5 ml medium per well. The release of peptidases from the human cell lines in response to LPS was measured by a coumarin based fluorigenic substrate utilized to study eukaryotic enzymes that degrade extracellular matrix proteins (collagen and fibronectin) and inactivated by inhibitors of matrix of metalloprotease (Yang et al. Abstract 105 at the 105th ASM general meeting).
The release of peptidase was measured by sensitive fluorescence test.

[17] = test system: Alcaligenes faecalis ATCC 8750; conditions: Gram − bacteria; cited from earlier work
[18] = test system: Penicillium chrysogenum CECT 2802; conditions: Fungi; cited from earlier work
[19] = test system: Serratia marcenses CECT 274; conditions: Gram − bacteria; cited from earlier work
[20] = test system: Bacillus subtilis ATCC 6633; conditions: Gram + bacteria; cited from earlier work
[21] = test system: Leuconostoc mesenteroides CETC 912; conditions: Gram + bacteria; cited from earlier work
[22] = test system: Listeria monocytogenes ATCC 7644; conditions: Gram + bacteria; cited from earlier work
[23] = test system: Arthrobacter oxydans ATCC 8010; conditions: Gram + bacteria; cited from earlier work
[24] = test system: Saccharomyces cerevisiae ATCC 9763; conditions: Yeast; cited from earlier work
[25] = test system: Chaetonium globosum ATCC 6205; conditions: Fungi; cited from earlier work
[26] = test system: Lactobacillus delbrueckii ssp lactis CECT 372; conditions: Gram + bacteria; cited from earlier work
[27] = test system: Candida albicans ATCC 10231; conditions: Yeast; cited from earlier work
[28] = test system: Proteus mirabilis CECT 170; conditions: Gram − bacteria; cited from earlier work
[29] = test system: Bordetella bronchiseptica ATCC 4617; conditions: Gram − bacteria; cited from earlier work
[30] = test system: Micrococcus luteus ATCC 9631; conditions: Gram + bacteria; cited from earlier work
[31] = test system: Escherichia coli ATCC 8739; conditions: Gram − bacteria; cited from earlier work
[32] = test system: Klebsiella pneumoniae var pneumoniae CECT 178; conditions: Gram − bacteria; cited from earlier work

Substance: ethyl ester of the lauramide of the arginine monohydrochloride [LAE]
- M.I.C. [1]: 16 ppm
- M.I.C. [2]: 32 ppm
- toxicity [3]: completely harmless to animals and humans
- M.I.C. [4]: 32 ppm
- M.I.C. [5]: 64 ppm
- CONCENTRATION Endotoxin ([6]; LAE 10 μg/ml): 80 EU/ml × 10E3
- CONCENTRATION Endotoxin ([6]; LAE 50 μg/ml): 61 EU/ml × 10E3
- CONCENTRATION Endotoxin (S. typhimurium LPS; LAE 5 μg/ml (as MIRENAT-CF)): 4000 EU/ml × 10E3
- CONCENTRATION Endotoxin (S. typhimurium LPS; LAE 10 μg/ml (as MIRENAT-CF)): 3995 EU/ml × 10E3
- CONCENTRATION Endotoxin (S. typhimurium LPS; LAE 20 μg/ml (as MIRENAT-CF)): 3000 EU/ml × 10E3
- CONCENTRATION Endotoxin (S. typhimurium LPS; LAE 30 μg/ml (as MIRENAT-CF)): 4000 EU/ml × 10E3
- CONCENTRATION Endotoxin (S. typhimurium LPS; LAE 50 μg/ml (as MIRENAT-CF)): 2500 EU/ml × 10E3
- dose response of the deactivation effect (S. typhimurium LPS; LAE concentration range 5-50 μg/ml): does not follow a dose response
- effect on the activity of S. typhimurium endotoxins (S. typhimurium LPS; LAE in concentrations of 5-50 μg/ml): significantly decreased
- absorption and metabolism [7]: fast absorption and metabolisation into naturally-occurring amino acids and the fatty acid lauric acid
- M.I.C. [8]: 32 ppm
- M.I.C. [9]: 16 ppm
- M.I.C. [10]: 32 ppm
- M.I.C. [11]: 32 ppm
- M.I.C. [12]: 32 ppm
- M.I.C. [13]: 16 ppm
- M.I.C. [14]: 16 ppm
- M.I.C. [15]: 32 ppm
- release of peptidase by LAE per se ([16]; 2 μg LAE/ml without LPS, similar to the blank): less than 300 units
- peptidase response to LPS ([16]; LAE 2 μg/ml added to LPS, both doses of LPS tested (10 and 20 μg/ml)): significant reduction of peptidase response
- Peptidase released ([16]; LPS 0 μg/ml, blank sample 400): 296 Fluorescence units
- Peptidase released ([16]; LPS 10 μg/ml, LPS alone 900): 580 Fluorescence units
- Peptidase released ([16]; LPS 20 μg/ml, LPS alone 1200): 655 Fluorescence units
- reduction of the toxicity of LPS (measured by fluorescence release) ([16]; LPS 10 μg/ml pre-mixed with 2 μg/ml of LAE): 35.6%
- reduction of the toxicity of LPS (measured by fluorescence release) ([16]; LPS 20 μg/ml pre-mixed with 2 μg/ml of LAE): 45.4%
- M.I.C. [17]: 64 ppm
- M.I.C. [18]: 128 ppm
- M.I.C. [19]: 2 ppm
- M.I.C. [20]: 16 ppm
- M.I.C. [21]: 32 ppm
- M.I.C. [22]: 10 ppm
- M.I.C. [23]: 64 ppm
- M.I.C. [24]: 32 ppm
- M.I.C. [25]: 16 ppm
- M.I.C. [26]: 16 ppm
- M.I.C. [27]: 16 ppm
- M.I.C. [28]: 64 ppm
- M.I.C. [29]: 128 ppm
- M.I.C. [30]: 128 ppm
- M.I.C. [31]: 32 ppm
- M.I.C. [32]: 32 ppm

Source: patent US20110230558A1 (priority 2008, published 2011)
